# From patent publication US11992473B2, “Compositions and methods for diagnosis and treatment of conditions related to the quality of aging and longevity” (Epitracker, Inc., priority 2018, dated 2024)
# Legend:
# Assay type in all cases: cell-based, human
# Dermal fibroblasts = experiment: BioMAP Diversity PLUS HDF3CGF system (wound healing and matrix/tissue remodeling)
# Procedure: (§1) This study examined activities of small molecules discovered in dolphin serum that had protective profiles against diseases of aging which can impact quality of life and longevity. These molecules were tested across 12 human primary cell-based systems as part of DiscoverX's BioMAP Diversity Plus program. These systems are designed to model complex human tissue and disease biology of the vasculature, skin, lung, and inflammatory tissues. Quantitative measurements of biomarker activities across this broad panel, along with comparative analysis of biological activities of known bioactive agents were used to predict and compare the efficacy and function of the four compounds. Compounds were tested at four concentrations (740 nm and 2.2, 6.7 and 20 μM).
# (§2) BioMAP panels consist of human primary cell-based systems designed to model different aspects of the human body in an in vitro format. The 12 systems in the Diversity PLUS panel allow test agent characterization in an unbiased way across a broad set of systems modeling various human disease states. BioMAP systems are constructed with one or more primary cell types from healthy human donors, with stimuli (such as cytokines or growth factors) added to capture relevant signaling networks that naturally occur in human tissue or pathological conditions. Vascular biology is modeled in both a Th1 (3C system) and a Th2 (4H system) inflammatory environment, as well as in a Th1 inflammatory state specific to arterial smooth muscle cells (CASM3C system). Additional systems recapitulate aspects of the systemic immune response including monocyte-driven Th1 inflammation (LPS system) or T cell stimulation (SAg system), chronic Th1 inflammation driven by macrophage activation (lMphg system) and the T cell-dependent activation of B cells that occurs in germinal centers (BT system). The BE3C system (Th1) and the BF4T system (Th2) represent airway inflammation of the lung, while the MyoF system models myofibroblast-lung tissue remodeling. Lastly, skin biology is addressed in the KF3CT system modeling Th1 cutaneous inflammation and the HDF3CGF system modeling wound healing.
# (§3) Each test agent generates a signature BioMAP profile that is created from the changes in protein biomarker readouts within individual system environments. Biomarker readouts (7-17 per system) are selected for therapeutic and biological relevance, are predictive for disease outcomes or specific drug effects and are validated using agents with known mechanism of action (MoA). Each readout is measured quantitatively by immune-based methods that detect protein (e.g., ELISA) or functional assays that measure proliferation and viability. BioMAP readouts are diverse and include cell surface receptors, cytokines, chemokines, matrix molecules and enzymes.
# (§4) The Diversity PLUS panel allows test agent characterization in an unbiased way across a broad set of systems modeling various human disease states. These systems are designed to model complex human tissue and disease biology of the vasculature, skin, lung, and inflammatory tissues.
# (§5) BioMAP systems are constructed with one or more primary cell types from healthy human donors, with stimuli (such as cytokines or growth factors) added to capture relevant signaling networks that naturally occur in human tissue or pathological conditions. Vascular biology is modeled in both a Th1 (3C system) and a Th2 (4H system) inflammatory environment, as well as in a Th1 inflammatory state specific to arterial smooth muscle cells (CASM3C system). Additional systems recapitulate aspects of the systemic immune response including monocyte-driven Th1 inflammation (LPS system) or T cell stimulation (SAg system), chronic Th1 inflammation driven by macrophage activation (lMphg system) and the T cell-dependent activation of B cells that occurs in germinal centers (BT system).
# [1] = system: Peripheral blood mononuclear cells, B cells; experiment: BioMAP Diversity PLUS BT system (T cell dependent B cell activation); conditions: BT system
# Procedure: as §1, §2, §3, §4, §5
# [2] = system: Venular endothelial cells, peripheral blood mononuclear cells; experiment: BioMAP Diversity PLUS LPS system (Th1 type chronic inflammation, monocyte activation); conditions: for Significant log10 reduction compared to nontreated controls: Secreted prostaglandin E2 (PGE2): LPS system
# Procedure: as §1, §2, §3, §4, §5
# [3] = system: Coronary artery smooth muscle cells; experiment: BioMAP Diversity PLUS CASM3C system (Th1 type vascular inflammation)
# Procedure: as §1, §2, §3, §4, §5
# [4] = system: Macrophages, venular endothelial cells; experiment: BioMAP Diversity PLUS lMphg system (Th1 type chronic inflammation, macrophage activation); conditions: /Mphg system
# Procedure: as §1, §2
# as §3, with “enzymes. In total, the Diversity PLUS panel contains 148 biomarker readouts that capture biological changes that occur within the physiological context of the particular BioMAP system. Specific BioMAP activities have been correlated to in vivo biology, and multiparameter BioMAP profiles have been used to distinguish compounds based on MoA and target selectivity across diverse physiological systems.” for “enzymes.”
# (§6) The Diversity PLUS panel allows test agent characterization in an unbiased way across a broad set of systems modeling various human disease states. These systems are designed to model complex human tissue and disease biology of the vasculature, skin, lung, and inflammatory tissues. Quantitative measurements of 148 biomarker activities across this broad panel, along with comparative analysis of biological activities from known bioactive agents, were used to predict and compare the efficacy and function of each selected compound at four concentrations (740 nm and 2.2, 6.7 and 20 μM). […]
# Lung fibroblasts = experiment: BioMAP Diversity PLUS MyoF system (myofibroblast differentiation and tissue remodeling)
# Procedure: as §1, §2
# as §3, with “enzymes. In total, the Diversity PLUS panel contains 148 biomarker readouts that capture biological changes that occur within the physiological context of the particular BioMAP system. Specific BioMAP activities have been correlated to in vivo biology, and multiparameter BioMAP profiles have been used to distinguish compounds based on MoA and target selectivity across diverse physiological systems.” for “enzymes.”
# as §6
# [5] = system: Bronchial epithelial cells, dermal fibroblasts; experiment: BioMAP Diversity PLUS BF4T system (Th2 type lung inflammation)
# Procedure: as §1, §2
# as §3, with “enzymes. In total, the Diversity PLUS panel contains 148 biomarker readouts that capture biological changes that occur within the physiological context of the particular BioMAP system. Specific BioMAP activities have been correlated to in vivo biology, and multiparameter BioMAP profiles have been used to distinguish compounds based on MoA and target selectivity across diverse physiological systems.” for “enzymes.”
# as §6
# [6] = system: Bronchial epithelial cells; experiment: BioMAP Diversity PLUS BE3C system (Th1 type lung inflammation)
# Procedure: as §1, §2
# as §3, with “enzymes. In total, the Diversity PLUS panel contains 148 biomarker readouts that capture biological changes that occur within the physiological context of the particular BioMAP system. Specific BioMAP activities have been correlated to in vivo biology, and multiparameter BioMAP profiles have been used to distinguish compounds based on MoA and target selectivity across diverse physiological systems.” for “enzymes.”
# as §6
molecule,measurement,setting,value
O=C(O)c1cc(O)c2cccc(O)c2n1 [Xanthurenate],interleukin 8 (IL-8),"Dermal fibroblasts; human cell system mimicking wound healing, remodeling, fibrosis and chronic inflammation (FIG. 8)",inhibitory activity
same,Significant log10 reduction compared to nontreated controls: Secreted interleukin 6 (IL-6),[1]; 20.0 μM,−0.13 log10
same,Significant log10 reduction compared to nontreated controls: Secreted tumor necrosis factor alpha (TNFα),[1]; 20.0 μM,−0.19 log10
same,Significant log10 reduction compared to nontreated controls: Secreted prostaglandin E2 (PGE2),[2]; 6.7 μM,−0.16 log10
same,Significant log10 reduction compared to nontreated controls: Secreted prostaglandin E2 (PGE2),[2]; 20.0 μM,−0.09 log10
same,secretion of prostaglandin E2 (PGE2),[2]; human cell system mimicking T-cell and monocyte driven chronic inflammation and cardiovascular diseases (FIG. 4),lowered
same,IL-6,[3]; human cell system mimicking cardiovascular inflammation (FIG. 6),lowered
lignoceroylcarnitine [Lignoceroylcarnitine (C24)],Significant log10 reduction compared to nontreated controls: B cell proliferation,[1]; 0.7 μM,−0.15 log10
same,Significant log10 reduction compared to nontreated controls: B cell proliferation,[1]; 2.2 μM,−0.09 log10
same,Significant log10 reduction compared to nontreated controls: Secreted tumor necrosis factor alpha (TNFα),[1]; 2.2 μM,−0.10 log10
same,Significant log10 reduction compared to nontreated controls: B cell proliferation,[1]; 6.7 μM,−0.09 log10
same,Significant log10 reduction compared to nontreated controls: Secreted interleukin 2 (IL-2),[1]; 6.7 μM,−0.11 log10
same,Significant log10 reduction compared to nontreated controls: B cell proliferation,[1]; 20.0 μM,−0.07 log10
same,Significant log10 reduction compared to nontreated controls: Secreted interleukin 6 (IL-6),[1]; 20.0 μM,−0.13 log10
same,Significant log10 reduction compared to nontreated controls: Secreted interleukin 17A (IL-17A),[1]; 20.0 μM,−0.25 log10
same,Significant log10 reduction compared to nontreated controls: Monocyte chemoattractant protein 1 (MCP-1),[4]; 2.2 μM,−0.29 log10
same,Significant log10 reduction compared to nontreated controls: Monocyte chemoattractant protein 1 (MCP-1),[4]; 6.7 μM,−0.16 log10
same,Significant log10 reduction compared to nontreated controls: Monocyte chemoattractant protein 1 (MCP-1),[4]; 20.0 μM,−0.11 log10
same,Significant log10 reduction compared to nontreated controls: Alpha smooth muscle actin (αSMA),Lung fibroblasts; 0.7 μM,−0.08 log10
same,Significant log10 reduction compared to nontreated controls: Alpha smooth muscle actin (αSMA),Lung fibroblasts; 2.2 μM,−0.13 log10
same,Significant log10 reduction compared to nontreated controls: Alpha smooth muscle actin (αSMA),Lung fibroblasts; 6.7 μM,−0.18 log10
same,Significant log10 reduction compared to nontreated controls: Alpha smooth muscle actin (αSMA),Lung fibroblasts; 20.0 μM,−0.20 log10
same,Significant log10 reduction compared to nontreated controls: Keratin 8/18,[5]; 0.7 μM,−0.07 log10
same,Significant log10 reduction compared to nontreated controls: Keratin 8/18,[5]; 2.2 μM,−0.07 log10
same,Significant log10 reduction compared to nontreated controls: Keratin 8/18,[5]; 6.7 μM,−0.09 log10
same,Significant log10 reduction compared to nontreated controls: Keratin 8/18,[5]; 20.0 μM,−0.11 log10
same,Significant log10 reduction compared to nontreated controls: Interferon-inducible T cell alpha chemoattractant (I-TAC)/CXCL11,[6]; 0.7 μM,−0.05 log10
same,Significant log10 reduction compared to nontreated controls: Interferon-inducible T cell alpha chemoattractant (I-TAC)/CXCL11,[6]; 2.2 μM,−0.12 log10
NC(=O)CC[C@H](NC(=O)CC[C@H](N)C(=O)O)C(=O)O [Gamma-glutamylglutamine],Significant log10 reduction compared to nontreated controls: Collagen III,"Dermal fibroblasts; HDF3CGF system, 20.0 μM",−0.10 log10
same,Significant log10 reduction compared to nontreated controls: Secreted interleukin 6 (IL-6),[1]; 20.0 μM,−0.13 log10
same,Significant log10 reduction compared to nontreated controls: Vascular cell adhesion molecule 1 (VCAM-1),"[3]; CASM3C system (as aligned in the table), 20.0 μM",−0.15 log10
same,Significant log10 reduction compared to nontreated controls: Serum amyloid A,"[3]; CASM3C system, 6.7 μM",−0.11 log10
same,Significant log10 reduction compared to nontreated controls: Monocyte chemoattractant protein 1 (MCP-1),[4]; 0.7 μM,−0.18 log10
same,Significant log10 reduction compared to nontreated controls: Monocyte chemoattractant protein 1 (MCP-1),[4]; 2.2 μM,−0.10 log10
same,Significant log10 reduction compared to nontreated controls: Interleukin 1 alpha (IL-1α),[4]; 20.0 μM,−0.16 log10
